Reference: publication PMC11667666, “Light-Driven Hybrid Nanoreactor Harnessing the Synergy of Carboxysomes and Organic Frameworks for Efficient Hydrogen Production” (ACS Catalysis, 2024)

Target: T1, recombinant α-carboxysome shell (Halothiobacillus neapolitanus, UniProt P45688+P45689+P45690)
T1 construct: gene csoS1A; whole self-assembled multi-paralog shell (about 90 nm) from pBAD-cso-2 in E. coli; CsoS1 hexamers, CsoS4 pentamers, CsoS2 linker; with Carboxysome shell vertex protein CsoS4A; Carboxysome shell vertex protein CsoS4B; Carboxysome assembly protein CsoS2
T1 sequence (O85044 whole entry): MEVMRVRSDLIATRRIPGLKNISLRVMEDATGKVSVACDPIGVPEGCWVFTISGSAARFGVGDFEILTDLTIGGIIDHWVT
T1 sequence (P45688 whole entry): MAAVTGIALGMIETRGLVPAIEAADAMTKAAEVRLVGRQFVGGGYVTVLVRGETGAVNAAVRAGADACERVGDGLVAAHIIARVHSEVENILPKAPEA
T1 sequence (O85041 whole entry, further chain): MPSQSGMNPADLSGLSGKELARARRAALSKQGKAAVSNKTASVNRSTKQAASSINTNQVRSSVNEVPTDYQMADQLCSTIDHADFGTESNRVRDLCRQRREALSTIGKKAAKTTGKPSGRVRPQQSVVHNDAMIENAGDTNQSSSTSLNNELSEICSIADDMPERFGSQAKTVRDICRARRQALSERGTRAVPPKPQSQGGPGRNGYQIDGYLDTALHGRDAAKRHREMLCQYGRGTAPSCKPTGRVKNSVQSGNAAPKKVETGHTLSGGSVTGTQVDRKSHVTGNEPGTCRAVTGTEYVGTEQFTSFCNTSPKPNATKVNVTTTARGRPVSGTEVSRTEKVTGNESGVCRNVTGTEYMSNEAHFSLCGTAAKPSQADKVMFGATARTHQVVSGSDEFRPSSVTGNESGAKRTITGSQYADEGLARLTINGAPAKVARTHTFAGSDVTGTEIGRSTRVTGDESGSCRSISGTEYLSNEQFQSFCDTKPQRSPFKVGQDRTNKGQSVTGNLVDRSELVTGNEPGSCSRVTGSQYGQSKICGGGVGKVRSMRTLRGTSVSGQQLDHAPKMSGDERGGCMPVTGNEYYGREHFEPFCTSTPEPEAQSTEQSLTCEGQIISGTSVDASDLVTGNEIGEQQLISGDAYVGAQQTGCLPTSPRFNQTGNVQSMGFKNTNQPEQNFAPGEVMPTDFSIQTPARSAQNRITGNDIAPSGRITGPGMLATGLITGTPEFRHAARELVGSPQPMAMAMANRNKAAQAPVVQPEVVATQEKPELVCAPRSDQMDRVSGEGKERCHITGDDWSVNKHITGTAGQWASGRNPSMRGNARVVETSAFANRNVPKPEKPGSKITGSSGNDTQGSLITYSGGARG
T1 sequence (O85043 whole entry, further chain): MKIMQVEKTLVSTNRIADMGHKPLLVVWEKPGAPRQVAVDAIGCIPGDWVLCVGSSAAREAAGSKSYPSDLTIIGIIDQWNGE
T1 sequence (P45689 2-98): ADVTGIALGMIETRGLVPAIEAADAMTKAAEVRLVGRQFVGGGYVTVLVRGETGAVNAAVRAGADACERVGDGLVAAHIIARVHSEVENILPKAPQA
T1 sequence (P45690 whole entry): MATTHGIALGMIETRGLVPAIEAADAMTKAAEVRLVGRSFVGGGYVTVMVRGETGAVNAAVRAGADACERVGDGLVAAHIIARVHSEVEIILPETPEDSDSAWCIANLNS
Experiment: isothermal titration calorimetry
Assay type: binding
Details: TBAP (50 μM) titrated into whole shell (3.75 μM); 20 mM Tris-HCl pH 8.0, 150 mM NaCl; multi-protein particle, site not resolved by ITC

## O=C(O)c1ccc(-c2cc(-c3ccc(C(=O)O)cc3)c3ccc4c(-c5ccc(C(=O)O)cc5)cc(-c5ccc(C(=O)O)cc5)c5ccc2c3c54)cc1 [TBAP, 1,3,6,8-tetra(4′-carboxyphenyl)pyrene]
  Kd: 0.524 µM
